Experimental data taken from patent US7696233B2, “Method for controlling particular insect pests by applying anthranilamide compounds” (E. I. du Pont de Nemours and Company, priority 2001, dated 2010).
Read-outs that look alike come from different tables or passages of the source. Values belong to the compound of their own block, whether it stands above or below them.

What was measured:
[1] = system: Heliothis virescens (tobacco budworm); format: in vivo; conditions: 10 mL of 300 ppm, 0 equals no feeding
Experimental: Seventy-eight cotton plants were grown in the greenhouse with natural lighting in Sassafras soil in six inch pots. When six true leaves were on the plant (approximately 36 cm tall) the soil was drenched with a solution of Compound 497, 500, 530, 531 or 543. Each of the 5 compounds was dissolved in 2 mL of acetone, and distilled water was added to make 300 ppm solutions of each of the compounds. The pots were divided into six groups (13 plants/treatment), and 10 mL of each solution was applied over the soil surface of each group with one group left untreated. The plants were arranged in the greenhouse in a randomized block design. Each treatment was divided into three groups for sampling at 24, 48, and 96 hours.
Leaves were taken from the base and terminal of the plants. The leaves from the third node and the terminal leaves greater than 15 cm^2 were sampled per plant. One clipped leaf from each plant was cut into four pieces and each piece was placed into an well with one second-instar larvae of Heliothis virescens (tobacco budworm). Larval mortality (% M) was recorded 96 hours after sampling. The percentage of leaf feeding (% FF) was also recorded. Consumption of the leaf in the well was reported as 0-100% (0 equals no feeding).

[2] = system: German cockroaches (Blatella germanica); assay: Test Q: German cockroach bait test; format: in vivo; conditions: ten cockroaches per cage
Experimental: For evaluating german cockroach (Blatella germanica), Compound 531 was mixed with water, and then blended into a slurry with equal amounts (by weight) of peanut butter. Approximately 1 gram of bait was placed into each test cage. Ten German cockroaches (Blatella germanica) were then placed into each cage, and provided water via a saturated cotton ball. The cages were held indoors, with indirect sunlight, and temperatures ranging from 22 to 31° C. Four test replicates were set up per rate. Evaluations were conducted 1, 2, 3, 5, and 7 days after treatment (DAT) by counting and removing the killed roaches found in each cage.

[3] = system: southern fire ants (Solenopsis xyloni); assay: Test R: fire ant bait test; format: in vivo; conditions: fifty ants per cage
Excerpt: For evaluating control of fire ant (Solenopsis xyloni), Compound 531 was mixed with water and then mixed into a slurry with equal amounts (by weight) of Niban granular bait with no active ingredient (supplied by Nisus Corp.). The baits were uniformly sprinkled onto the sand substrate in each test cage. Fifty field-collected southern fire ants (Solenopsis xyloni) were then placed into each cage and provided water via a saturated cotton ball. The cages were held indoors with indirect sunlight and temperatures ranging from 22 to 31° C. Four test replicates were set up per rate. Evaluations were conducted at 1, 3, 7, 10, and 14 days after treatment (DAT) by counting and removing the killed ants found in each cage.

[4] = system: thrips (Frankliniella sp.); assay: Test N: control of thrips, sprayed cotton or soybean plants; format: in vivo; conditions: sprayed at 10 ppm; four days after application
Experimental: For evaluating control of thrips (Frankliniella sp.), samples of the test compounds were dissolved in 1 mL of acetone. This solution was then diluted to 100 mL total volume using an aqueous 500 ppm solution of Ortho X-77™ surfactant. Serial dilutions were made to obtain 50 mL of 10 ppm concentration.
The diluted solutions of the test compounds were sprayed to run-off on three-week-old cotton or soybean plants infested with thrips. The plants were placed on a rotating turntable sprayer (10 rpm). Test solutions were applied using a flat fan air-assisted nozzle (Spraying Systems 122440) at 10 psi (69 kPa). Sprayed and dried plants were incased in a plastic cylinder. At four days after application the total number of dead thrips was recorded.

[5] = system: tobacco budworm (Heliothis virescens); assay: Test I: soil systemic control of tobacco budworm, cotton; format: in vivo; conditions: 10 ppm, 10 mL to pots weekly for four weeks
Experimental: For evaluating soil systemic control of tobacco budworm (Heliothis virescens), cotton plants were grown in sassafras soil in 15-cm pots in aluminum trays. When the plants reached square stage (bud formation on the plant) the plants were treated with the test compounds.
Test compounds were formulated in 0.25 mL of acetone and then diluted with water to provide solutions of 10 ppm. Ten mL of the treatment solutions was added to the pots weekly for four weeks, with four replicates of each treatment rate. One day after the second, third and fourth treatments, 35-50 first instar Heliothis virescens larvae were brushed on each plant with paintbrushes and placed on the terminal area, squares, and bolls. Five days after the last infestation with larvae the plants were rated for damage.

[6] = system: Colorado potato beetle (Leptinotarsa decemlineata); assay: Test L: soil systemic control of Colorado potato beetle, tomato; format: in vivo; conditions: 5 ppm, 5 mL to soil; leaf excised after 4 days; mortality after four days
Experimental: For evaluating soil systemic control of Colorado potato beetle (Leptinotarsa decemlineata), transplanted tomato plants were grown in 6-cm pots for 5 days until they were at the two true leaf stage.
Test compounds were dissolved in 0.25 mL of acetone and diluted with water provide solutions of 5 ppm. Five mL of the appropriate test solution was applied by pipette to the surface of the soil in each pot, followed by 5 mL of water, with eight plants for each compound/rate. The pots were covered and held at 25° C. with 16 hours of light per day. The plants were watered the next day and each day following as needed. After 4 days, one leaf from each plant was excised and placed into a well of a test tray as described in Test H. One 5-day old Colorado potato beetle (Leptinotarsa decemlineata) was placed in each well, the tray was covered and then the test units were held at 25° C. with 16 hours of light per day. Mortality was observed after four days.

[7] = base leaf sampled 24 h after drench
[8] = base leaf sampled 48 h after drench
[9] = base leaf sampled 96 h after drench
[10] = terminal leaf sampled 24 h after drench
[11] = terminal leaf sampled 48 h after drench
[12] = terminal leaf sampled 96 h after drench

Compound: CNC(=O)c1cc(Cl)cc(C)c1NC(=O)c1cc(Br)nn1-c1ncccc1Cl [Compound 531]
% FF (percentage of leaf feeding) [1, 7]: 60%
% FF (percentage of leaf feeding) [1, 8]: 80%
% FF (percentage of leaf feeding) [1, 9]: 10%
% FF (percentage of leaf feeding) [1, 10]: 40%
% FF (percentage of leaf feeding) [1, 11]: 40%
% FF (percentage of leaf feeding) [1, 12]: 10%
Average of Killed Cockroaches ([2]; peanut butter bait 400 ppm, 1 DAT): 3.8
Average of Killed Cockroaches ([2]; peanut butter bait 400 ppm, 2 DAT): 5.8
Average of Killed Cockroaches ([2]; peanut butter bait 400 ppm, 3 DAT): 6.3
Average of Killed Cockroaches ([2]; peanut butter bait 400 ppm, 5 DAT): 7
Average of Killed Cockroaches ([2]; peanut butter bait 400 ppm, 7 DAT): 7
Average of Killed Cockroaches ([2]; peanut butter bait 2000 ppm, 1 DAT): 6.3
Average of Killed Cockroaches ([2]; peanut butter bait 2000 ppm, 2 DAT): 8
Average of Killed Cockroaches ([2]; peanut butter bait 2000 ppm, 3 DAT): 8.8
Average of Killed Cockroaches ([2]; peanut butter bait 2000 ppm, 5 DAT): 9
Average of Killed Cockroaches ([2]; peanut butter bait 2000 ppm, 7 DAT): 9
Average of Killed Cockroaches ([2]; peanut butter bait 10000 ppm, 1 DAT): 9.5
Average of Killed Cockroaches ([2]; peanut butter bait 10000 ppm, 2 DAT): 9.5
Average of Killed Cockroaches ([2]; peanut butter bait 10000 ppm, 3 DAT): 9.5
Average of Killed Cockroaches ([2]; peanut butter bait 10000 ppm, 5 DAT): 9.5
Average of Killed Cockroaches ([2]; peanut butter bait 10000 ppm, 7 DAT): 9.5
Average of Killed Fire Ants ([3]; granular bait 400 ppm, 1 DAT): 0.5
Average of Killed Fire Ants ([3]; granular bait 400 ppm, 3 DAT): 1.3
Average of Killed Fire Ants ([3]; granular bait 400 ppm, 7 DAT): 40.5
Average of Killed Fire Ants ([3]; granular bait 400 ppm, 10 DAT): 50
Average of Killed Fire Ants ([3]; granular bait 400 ppm, 14 DAT): 50
Average of Killed Fire Ants ([3]; granular bait 2,000 ppm, 1 DAT): 1
Average of Killed Fire Ants ([3]; granular bait 2,000 ppm, 3 DAT): 2
Average of Killed Fire Ants ([3]; granular bait 2,000 ppm, 7 DAT): 43
Average of Killed Fire Ants ([3]; granular bait 2,000 ppm, 10 DAT): 49.8
Average of Killed Fire Ants ([3]; granular bait 2,000 ppm, 14 DAT): 50
Average of Killed Fire Ants ([3]; granular bait 10,000 ppm, 1 DAT): 0
Average of Killed Fire Ants ([3]; granular bait 10,000 ppm, 3 DAT): 2.3
Average of Killed Fire Ants ([3]; granular bait 10,000 ppm, 7 DAT): 42.8
Average of Killed Fire Ants ([3]; granular bait 10,000 ppm, 10 DAT): 50
Average of Killed Fire Ants ([3]; granular bait 10,000 ppm, 14 DAT): 50

Compound: CNC(=O)c1cc(Br)cc(C)c1NC(=O)c1cc(C(F)(F)F)nn1-c1ncccc1Cl [Compound 542]
mortality [4]: at least 90%

Compound: CNC(=O)c1cc(Cl)cc(C)c1NC(=O)c1cc(C(F)(F)F)nn1-c1ncccc1Cl [Compound 500]
% FF (percentage of leaf feeding) [1, 7]: 80%
% FF (percentage of leaf feeding) [1, 8]: 80%
% FF (percentage of leaf feeding) [1, 9]: 30%
% FF (percentage of leaf feeding) [1, 10]: 60%
% FF (percentage of leaf feeding) [1, 11]: 60%
% FF (percentage of leaf feeding) [1, 12]: 30%

Compound: Cc1cc(Br)cc(C(=O)NC(C)C)c1NC(=O)c1cc(Br)nn1-c1ncccc1Cl [Compound 520]
protection of squares and bolls [5]: excellent protection of squares and boils including no or minimal sepal damage

melting point: 205 to 207 °C
Compound: CNC(=O)c1cc(Cl)cc(C)c1NC(=O)c1cc(Cl)nn1-c1ncccc1Cl

Compound: Cc1cc(Cl)cc(C(=O)NC(C)C)c1NC(=O)c1cc(Cl)nn1-c1ncccc1Cl [Compound 543]
% FF (percentage of leaf feeding) [1, 7]: 30%
% FF (percentage of leaf feeding) [1, 8]: 30%
% FF (percentage of leaf feeding) [1, 9]: 5%
% FF (percentage of leaf feeding) [1, 10]: 20%
% FF (percentage of leaf feeding) [1, 11]: 20%
% FF (percentage of leaf feeding) [1, 12]: 5%

melting point: 200 to 204 °C
Compound: CCn1nc(C(F)(F)F)cc1NC(=O)c1c(C)cccc1C(=O)NC(C)C

Compound: Cc1cc(Cl)cc(C(=O)NC(C)C)c1NC(=O)c1cc(C(F)(F)F)nn1-c1ncccc1Cl [Compound 497]
% FF (percentage of leaf feeding) [1, 7]: 80%
% FF (percentage of leaf feeding) [1, 8]: 100%
% FF (percentage of leaf feeding) [1, 9]: 20%
% FF (percentage of leaf feeding) [1, 10]: 50%
% FF (percentage of leaf feeding) [1, 11]: 50%
% FF (percentage of leaf feeding) [1, 12]: 10%

melting point: 215 to 217 °C
Compound: CNC(=O)c1cc(Cl)cc(C)c1NC(=O)c1cc(OCC(F)(F)F)nn1-c1ncccc1Cl

Compound: Cc1cc(Cl)cc(C(=O)NC(C)C)c1NC(=O)c1cc(Br)nn1-c1ncccc1Cl [Compound 530]
% FF (percentage of leaf feeding) [1, 7]: 80%
% FF (percentage of leaf feeding) [1, 8]: 50%
% FF (percentage of leaf feeding) [1, 9]: 5%
% FF (percentage of leaf feeding) [1, 10]: 50%
% FF (percentage of leaf feeding) [1, 11]: 20%
% FF (percentage of leaf feeding) [1, 12]: 5%

Compound: Cc1cccc(C(=O)NC(C)C)c1NC(=O)c1cc(Br)nn1-c1ncccc1Cl [Compound 283]
protection of squares and bolls [5]: excellent protection of squares and boils including no or minimal sepal damage

melting point: 233 to 235 °C
Compound: Cc1cccc(C(=O)NC(C)C)c1NC(=O)c1cc(C(F)(F)F)nn1-c1ncccc1C(F)(F)F

Compound: Cc1cccc(C(=O)NC(C)C)c1NC(=O)c1cc(C(F)(F)F)nn1-c1ncccc1Cl [Compound 214]
protection of squares and bolls [5]: excellent protection of squares and boils including no or minimal sepal damage
mortality and feeding inhibition [6]: excellent levels of mortality and feeding inhibition
